Measurements: US8796289B2 (AbbVie Inc., priority 2011, dated 2014)

Biological target: GST-tagged-Wee1 kinase (Homo sapiens, UniProt P30291)
Assay: Wee1 time-resolved fluorescence equilibrium binding assay (displacement of Oregon Green-labeled ATP-competitive kinase probe)
Protocol: Wee1 kinase was assayed using a time-resolved fluorescence equilibrium binding assay monitoring displacement of a rapidly reversible Oregon Green-labeled ATP-competitive kinase probe (N-(2-(2-(2-(4-(4-(5-chloro-4-(2-(1-hydroxycyclobutyl)thiazol-5-yl)-1H-pyrrolo[2,3-b]pyridin-2-yl)phenyl)piperazin-1-yl)ethoxy)ethoxy)ethyl)-2′,7′-difluoro-3′,6′-dihydroxy-3-oxo-3H-spiro[isobenzofuran-1,9′-xanthene]-5-carboxamide) by competitive Wee1 inhibitors.

Sequence of GST-tagged-Wee1 kinase (P30291 whole entry): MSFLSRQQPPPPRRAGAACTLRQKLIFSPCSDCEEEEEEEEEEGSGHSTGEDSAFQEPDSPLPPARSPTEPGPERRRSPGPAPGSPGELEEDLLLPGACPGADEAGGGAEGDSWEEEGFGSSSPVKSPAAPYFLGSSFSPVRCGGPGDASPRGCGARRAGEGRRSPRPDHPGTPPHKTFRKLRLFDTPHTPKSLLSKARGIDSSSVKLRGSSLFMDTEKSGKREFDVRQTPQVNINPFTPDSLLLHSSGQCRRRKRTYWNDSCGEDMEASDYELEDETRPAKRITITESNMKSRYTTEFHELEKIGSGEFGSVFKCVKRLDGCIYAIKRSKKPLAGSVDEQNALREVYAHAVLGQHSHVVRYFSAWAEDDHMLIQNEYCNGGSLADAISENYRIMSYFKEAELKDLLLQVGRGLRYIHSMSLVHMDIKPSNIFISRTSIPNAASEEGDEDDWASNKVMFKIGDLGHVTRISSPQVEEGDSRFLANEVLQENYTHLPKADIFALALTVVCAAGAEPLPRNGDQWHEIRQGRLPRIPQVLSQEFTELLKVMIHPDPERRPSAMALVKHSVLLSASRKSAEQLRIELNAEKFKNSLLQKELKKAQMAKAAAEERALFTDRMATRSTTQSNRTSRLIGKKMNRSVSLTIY

| SMILES | Ki |
| --- | --- |
| Cc1nn(-c2c(Cl)cccc2Cl)c(=O)c2cnc(Nc3ccc(CN4CCN(C)CC4)cc3)nc12 [Example 454, 6-(2,6-dichlorophenyl)-8-methyl-2-({4-[(4-methylpiperazin-1-yl)methyl]phenyl}amino)pyrimido[4,5-d]pyridazin-5(6H)-one] | 1.2 nM |
| Cc1nn(-c2c(Cl)cccc2Cl)c(=O)c2cnc(Nc3ccc(C4CCCN4)cc3)nc12 (centres unmarked) [Example 455, 6-(2,6-dichlorophenyl)-8-methyl-2-{[4-(pyrrolidin-2-yl)phenyl]amino}pyrimido[4,5-d]pyridazin-5(6H)-one] | 0.5 nM |
| Cc1nn(-c2c(Cl)cccc2Cl)c(=O)c2cnc(Nc3ccc(C4CCN(C)CC4)cc3)nc12 [Example 456, 6-(2,6-dichlorophenyl)-8-methyl-2-{[4-(1-methylpiperidin-4-yl)phenyl]amino}pyrimido[4,5-d]pyridazin-5(6H)-one] | 0.5 nM |
| Cc1nn(-c2c(Cl)cccc2Cl)c(=O)c2cnc(Nc3ccc(C4CCNCC4)cc3)nc12 [Example 458, 6-(2,6-dichlorophenyl)-8-methyl-2-{[4-(piperidin-4-yl)phenyl]amino}pyrimido[4,5-d]pyridazin-5(6H)-one] | 0.23 nM |
| CCc1nn(-c2c(Cl)cccc2Cl)c(=O)c2cnc(Nc3ccc4c(c3)C(C)(C)N(C)CC4)nc12 [Example 461, 6-(2,6-dichlorophenyl)-8-ethyl-2-[(1,1,2-trimethyl-1,2,3,4-tetrahydroisoquinolin-7-yl)amino]pyrimido[4,5-d]pyridazin-5(6H)-one] | 0.68 nM |
| CCc1nn(-c2c(Cl)cccc2Cl)c(=O)c2cnc(Nc3ccc4c(c3)CNCC4(C)C)nc12 [Example 462, 6-(2,6-dichlorophenyl)-2-[(4,4-dimethyl-1,2,3,4-tetrahydroisoquinolin-7-yl)amino]-8-ethylpyrimido[4,5-d]pyridazin-5(6H)-one] | 0.95 nM |
| CCc1nn(-c2c(Cl)cccc2Cl)c(=O)c2cnc(Nc3ccc4c(c3)C(C)(C)NCC4)nc12 [Example 463, 6-(2,6-dichlorophenyl)-2-[(1,1-dimethyl-1,2,3,4-tetrahydroisoquinolin-7-yl)amino]-8-ethylpyrimido[4,5-d]pyridazin-5(6H)-one] | 0.55 nM |
| CCc1nn(-c2c(Cl)cccc2Cl)c(=O)c2cnc(Nc3ccc(CN4CCN(C)CC4)cc3)nc12 [Example 465, 6-(2,6-dichlorophenyl)-8-ethyl-2-({4-[(4-methylpiperazin-1-yl)methyl]phenyl}amino)pyrimido[4,5-d]pyridazin-5(6H)-one] | 0.88 nM |
| CCc1nn(-c2c(Cl)cccc2Cl)c(=O)c2cnc(Nc3ccc4c(c3)CCNC4(C)C)nc12 [Example 466, 6-(2,6-dichlorophenyl)-2-[(1,1-dimethyl-1,2,3,4-tetrahydroisoquinolin-6-yl)amino]-8-ethylpyrimido[4,5-d]pyridazin-5(6H)-one] | 0.34 nM |
| Cc1nn(-c2c(Cl)cccc2Cl)c(=O)c2cnc(Nc3ccc4c(c3)CNC(=O)C4)nc12 [Example 467, 6-(2,6-dichlorophenyl)-8-methyl-2-[(3-oxo-1,2,3,4-tetrahydroisoquinolin-7-yl)amino]pyrimido[4,5-d]pyridazin-5(6H)-one] | 0.47 nM |
| CCc1nn(-c2c(Cl)cccc2Cl)c(=O)c2cnc(Nc3ccc(N4C[C@H]5C[C@@H]4CN5)cc3)nc12 [Example 468, 2-({4-[(1R,4R)-2,5-diazabicyclo[2.2.1]hept-2-yl]phenyl}amino)-6-(2,6-dichlorophenyl)-8-ethylpyrimido[4,5-d]pyridazin-5(6H)-one] | 0.69 nM |
| CCc1nn(-c2c(Cl)cccc2Cl)c(=O)c2cnc(Nc3ccc(N4CCCN(C)CC4)c(C)c3)nc12 [Example 469, 6-(2,6-dichlorophenyl)-8-ethyl-2-{[3-methyl-4-(4-methyl-1,4-diazepan-1-yl)phenyl]amino}pyrimido[4,5-d]pyridazin-5(6H)-one] | 0.63 nM |
| Cc1nn(-c2c(Cl)cccc2Cl)c(=O)c2cnc(Nc3cc4c(cc3Cl)CNCC4)nc12 [Example 472, 2-[(7-chloro-1,2,3,4-tetrahydroisoquinolin-6-yl)amino]-6-(2,6-dichlorophenyl)-8-methylpyrimido[4,5-d]pyridazin-5(6H)-one] | 2.3 nM |
| CN1CCc2ccc(Nc3ncc4c(=O)n(-c5c(Cl)cccc5Cl)nc(C(F)F)c4n3)cc2C1 [Example 475, 6-(2,6-dichlorophenyl)-8-(difluoromethyl)-2-[(2-methyl-1,2,3,4-tetrahydroisoquinolin-7-yl)amino]pyrimido[4,5-d]pyridazin-5(6H)-one] | 0.24 nM |
| CC(=O)N1CCc2ccc(Nc3ncc4c(=O)n(-c5c(Cl)cccc5Cl)nc(C(F)F)c4n3)cc2C1 [Example 477, 2-[(2-acetyl-1,2,3,4-tetrahydroisoquinolin-7-yl)amino]-6-(2,6-dichlorophenyl)-8-(difluoromethyl)pyrimido[4,5-d]pyridazin-5(6H)-one] | 0.67 nM |
| CC1(C)CNCc2cc(Nc3ncc4c(=O)n(-c5c(Cl)cccc5Cl)nc(C(F)F)c4n3)ccc21 [Example 478] | 0.17 nM |
| Cc1nn(-c2c(Cl)cccc2Cl)c(=O)c2cnc(Nc3cc4c(cc3F)CNCC4)nc12 [Example 480, 6-(2,6-dichlorophenyl)-2-[(7-fluoro-1,2,3,4-tetrahydroisoquinolin-6-yl)amino]-8-methylpyrimido[4,5-d]pyridazin-5(6H)-one] | 1.3 nM |
| Cc1nn(-c2ccccc2Cl)c(=O)c2cnc(Nc3ccc4c(c3)CCNC4)nc12 [Example 481, 6-(2-chlorophenyl)-8-methyl-2-(1,2,3,4-tetrahydroisoquinolin-6-ylamino)pyrimido[4,5-d]pyridazin-5(6H)-one] | 0.73 nM |
| CN1Cc2cc(Nc3ncc4c(=O)n(-c5c(Cl)cccc5Cl)nc(C(F)F)c4n3)ccc2C1(C)C [Example 485, 6-(2,6-dichlorophenyl)-8-(difluoromethyl)-2-[(1,1,2-trimethyl-2,3-dihydro-1H-isoindol-5-yl)amino]pyrimido[4,5-d]pyridazin-5(6H)-one] | 0.15 nM |
| CN1CCCC(c2ccc(Nc3ncc4c(=O)n(-c5c(Cl)cccc5Cl)nc(C(F)F)c4n3)cc2)C1 (centres unmarked) [Example 486, 6-(2,6-dichlorophenyl)-8-(difluoromethyl)-2-{[4-(1-methylpiperidin-3-yl)phenyl]amino}pyrimido[4,5-d]pyridazin-5(6H)-one] | 0.13 nM |

Further molecules by falling Ki, results first:

| Ki | SMILES |
| --- | --- |
| 1.6 nM | CCc1nn(-c2c(Cl)cccc2Cl)c(=O)c2cnc(Nc3ccc4c(c3)CNC(=O)C4)nc12 [Example 464, 6-(2,6-dichlorophenyl)-8-ethyl-2-[(3-oxo-1,2,3,4-tetrahydroisoquinolin-7-yl)amino]pyrimido[4,5-d]pyridazin-5(6H)-one] |
| 0.99 nM | CCc1nn(-c2c(Cl)cccc2Cl)c(=O)c2cnc(Nc3ccc(N4CCNC(=O)C4)cc3)nc12 [Example 470, 6-(2,6-dichlorophenyl)-8-ethyl-2-{[4-(3-oxopiperazin-1-yl)phenyl]amino}pyrimido[4,5-d]pyridazin-5(6H)-one] |
| 0.55 nM | Cc1nn(-c2ccccc2Cl)c(=O)c2cnc(Nc3ccc4c(c3)CN(C)CC4(C)C)nc12 [Example 483, 6-(2-chlorophenyl)-8-methyl-2-[(2,4,4-trimethyl-1,2,3,4-tetrahydroisoquinolin-7-yl)amino]pyrimido[4,5-d]pyridazin-5(6H)-one] |
| 0.38 nM | O=c1c2cnc(Nc3ccc4c(c3)CCNC4)nc2c(C(F)F)nn1-c1c(Cl)cccc1Cl [Example 473, 6-(2,6-dichlorophenyl)-8-(difluoromethyl)-2-(1,2,3,4-tetrahydroisoquinolin-6-ylamino)pyrimido[4,5-d]pyridazin-5(6H)-one] |
| 0.32 nM | CCc1nn(-c2c(Cl)cccc2Cl)c(=O)c2cnc(Nc3ccc4c(c3)CCN(C)C4(C)C)nc12 [Example 460, 6-(2,6-dichlorophenyl)-8-ethyl-2-[(1,1,2-trimethyl-1,2,3,4-tetrahydroisoquinolin-6-yl)amino]pyrimido[4,5-d]pyridazin-5(6H)-one] |
| 0.31 nM | Cc1nn(-c2ccccc2Cl)c(=O)c2cnc(Nc3ccc4c(c3)CNCC4(C)C)nc12 [Example 482, 6-(2-chlorophenyl)-2-[(4,4-dimethyl-1,2,3,4-tetrahydroisoquinolin-7-yl)amino]-8-methylpyrimido[4,5-d]pyridazin-5(6H)-one] |
| 0.29 nM | O=c1c2cnc(Nc3ccc(C4CCCNC4)cc3)nc2c(C(F)F)nn1-c1c(Cl)cccc1Cl (centres unmarked) [Example 479, 6-(2,6-dichlorophenyl)-8-(difluoromethyl)-2-{[4-(piperidin-3-yl)phenyl]amino}pyrimido[4,5-d]pyridazin-5(6H)-one] |
| 0.28 nM | Cc1nn(-c2c(Cl)cccc2Cl)c(=O)c2cnc(Nc3ccc(N4C[C@H]5C[C@@H]4CN5)cc3)nc12 [Example 457, 2-({4-[(1R,4R)-2,5-diazabicyclo[2.2.1]hept-2-yl]phenyl}amino)-6-(2,6-dichlorophenyl)-8-methylpyrimido[4,5-d]pyridazin-5(6H)-one] |
| 0.17 nM | Cc1nn(-c2c(Cl)cccc2Cl)c(=O)c2cnc(Nc3ccc(C4CCCNC4)cc3)nc12 (centres unmarked) [Example 459, 6-(2,6-dichlorophenyl)-8-methyl-2-{[4-(piperidin-3-yl)phenyl]amino}pyrimido[4,5-d]pyridazin-5(6H)-one] |
| 0.17 nM | CC(=O)N1CCc2cc(Nc3ncc4c(=O)n(-c5c(Cl)cccc5Cl)nc(C(F)F)c4n3)ccc2C1 [Example 476, 2-[(2-acetyl-1,2,3,4-tetrahydroisoquinolin-6-yl)amino]-6-(2,6-dichlorophenyl)-8-(difluoromethyl)pyrimido[4,5-d]pyridazin-5(6H)-one] |
| 0.17 nM | Cc1nn(-c2ccccc2Cl)c(=O)c2cnc(Nc3ccc4c(c3)CC(N(C)C)C4)nc12 (centres unmarked) [Example 484, 6-(2-chlorophenyl)-2-{[2-(dimethylamino)-2,3-dihydro-1H-inden-5-yl]amino}-8-methylpyrimido[4,5-d]pyridazin-5(6H)-one] |
| 0.16 nM | Cc1nn(-c2c(Cl)cccc2Cl)c(=O)c2cnc(Nc3ccc4c(c3)CN(C)C4(C)C)nc12 [Example 471, 6-(2,6-dichlorophenyl)-8-methyl-2-[(1,1,2-trimethyl-2,3-dihydro-1H-isoindol-5-yl)amino]pyrimido[4,5-d]pyridazin-5(6H)-one] |
